Measured values published in patent US7964630B2, “Topical application agents against mimic and age-related wrinkles” (DSM IP Assets B.V., priority 2004, dated 2011).
Non-standard residues stand in square brackets, D forms with d. Residues, ends and D or L forms follow the SMILES beside them. *: point of attachment. NHPhenethyl = c1ccc(CCN*)cc1; Dap = NC[CH](N)C(=O)O; NHBn = c1ccc(CN*)cc1

How the values were obtained:
[1] = system: co-culture model of human muscle cells and neurons from the spinal marrow of rat embryos; assay: Efficacy test: frequency of muscle contractions in a nerve-muscle co-culture model; type: cell-based, human (myoblasts), rat (embryo spinal explants); settings: for Variation Δ [in %] of the number of muscle contractions (1 min): 1 minute after incubation; for Variation Δ [in %] of the number of muscle contractions (1 min) / Variation Δ [in %] of the number of muscle contractions (2 h) / Variation Δ [in %] of the number of muscle contractions (48 h): contractions counted for 30 seconds, compared to number before incubation, means of 3 measurements; for Variation Δ [in %] of the number of muscle contractions (2 h): 2 hours after incubation; for Variation Δ [in %] of the number of muscle contractions (48 h): 48 hours after incubation
Experimental: Culture conditions: 37° C., 5% CO2 In order to test the efficacy of the compounds of the present invention, a co-culture model of human muscle cells on one hand and neurons from the spinal marrow of rat embryos on the other hand was established. Normal human muscle cells (myoblasts) were cultured in gelatine-coated 24-well plates until a monolayer of myofibrils (from fused muscle cells) had formed. Afterwards, an explant of the spinal marrow of a 13 day-old rat embryo with dorsal root ganglia was placed on the muscle cell monolayer. After one day of co-culture, the first axons were seen to grow out of the explant to come in contact with muscle cells. The first contractions appeared after 5 days. […] At this stage of development, the myofibrils performed regular contractions and the model was used for the tests.

[2] = system: Ca++-dependent neurotransmitter release in the synapses; settings: cited from earlier work

Compound	Variation Δ [in %] of the number of muscle contractions (1 min) ([1]; 0.1 mM) [%]	Variation Δ [in %] of the number of muscle contractions (2 h) ([1]; 0.1 mM) [%]	Variation Δ [in %] of the number of muscle contractions (48 h) ([1]; 0.1 mM) [%]	Variation Δ [in %] of the number of muscle contractions (1 min) ([1]; 0.5 mM) [%]	Variation Δ [in %] of the number of muscle contractions (2 h) ([1]; 0.5 mM) [%]	Variation Δ [in %] of the number of muscle contractions (48 h) ([1]; 0.5 mM) [%]	Variation Δ [in %] of the number of muscle contractions (1 min) ([1]; 1.0 mM) [%]	Variation Δ [in %] of the number of muscle contractions (2 h) ([1]; 1.0 mM) [%]	Variation Δ [in %] of the number of muscle contractions (48 h) ([1]; 1.0 mM) [%]	acts weaker than Botox (factor) [2] [times]	Variation Δ [in %] of the number of muscle contractions (1 min) ([1]; 0.05 mM) [%]	Variation Δ [in %] of the number of muscle contractions (2 h) ([1]; 0.05 mM) [%]	muscle-relaxing effect / activity profile with regard to muscle relaxation ([1]; result in words)
C[C@H](N=C(N(C)C)N(C)C)C(=O)N1CCC[C@@H]1C(=O)N[C@@H](CCCNC(=N)N)C(=O)NCc1ccccc1 [4.11]	105	75	96	105	16	22	104	7	0				
N=C(N)NCCCC(NC(=O)C1CCCN1C(=O)C(N)CN)C(=O)NCc1ccccc1 (stereo not drawn) [4.6] (H-[Dap]-Pro-Arg-NHBn; configuration not given here)	85	68	43	78	42	0	68	35	0				
CC(N)C(=O)N1CCCC1C(=O)NC(CCCNC(=N)N)C(=O)NCc1ccccc1 (stereo not drawn) [4.2] (H-Ala-Pro-Arg-NHBn; configuration not given here)	85	78	37	93	37	36	85	12	60				
COc1ccc(CNC(=O)C(CCCNC(=N)N)NC(=O)C2CCCN2C(=O)C(C)N)cc1 (stereo not shown) [4.8]	85	37	132	84	90	78	100	58	32				
CC(N)C(=O)N1CCCC1C(=O)NC(CCCNC(=N)N)C(=O)NCCc1ccccc1 (stereo not drawn) [4.7] (H-Ala-Pro-Arg-NHPhenethyl; configuration not given here)	103	69	74	91	0	34	105	65	3				
CSCC[C@H](NC(=O)[C@H](CCC(=O)O)NC(=O)[C@H](CCC(=O)O)NC(C)=O)C(=O)N[C@@H](CCC(N)=O)C(=O)N[C@@H](CCCNC(=N)N)C(=O)N[C@@H](CCCNC(=N)N)C(N)=O [Product A, Ac-Glu-Glu-Met-Gln-Arg-Arg-NH2, reference compound] (Ac-EEMQRR-NH2)	103	120		106	91		99	88		5000	103	96	too weak and too inconstant
CC(N)C(=O)N1CCCC1C(=O)NC(CCCNC(=N)N)C(=O)NC(CCCNC(=N)N)C(=O)NCc1ccccc1 (stereo not shown) [4.3] (H-APRR-NHBn; configuration not given here)	91	5	88	73	1	87	25	0	7				
